Molecular target: Human TASK-1 channels (Homo sapiens (Human), UniProt O14649)
Test: Determination of the activity on the TASK-1 channel in Xenopus oocytes (two-microelectrode voltage clamp)
Type: cell-based
Details: compound concentration 5 μM
Protocol: Determination of the activity on the TASK-1 channel in Xenopus oocytes
Human TASK-1 channels were expressed in Xenopus oocytes. For this purpose, oocytes were isolated from Xenopus laevis and defoliculated. Subsequently, TASK-1-encoding RNA synthesized in vitro was injected into the oocytes. After two days of TASK-1 protein expression, TASK-1 currents were measured by two-microelectrode voltage clamp. Data were acquired and analyzed using a TEC-10cx amplifier (NPI Electronic, Tamm, Germany) connected to an ITC-16 interface (Instrutech Corp., Long Island, USA) and Pulse software (HEKA Elektronik, Lambrecht, Germany). Oocytes were clamped to −90 mV and TASK-1 mediated currents were measured during 500 ms voltage pulses to 40 mV. Oocytes were continuously superfused with ND96 buffer containing 96 mM sodium chloride, 2 mM potassium chloride, 1.8 mM calcium chloride, 1 mM magnesium chloride, 5 mM 4-(2-hydroxyethyl)-piperazine-1-ethanesulfonic acid (HEPES; pH adjusted to 7.4 with sodium hydroxide). All experiments were performed at room temperature. Test compounds were consecutively added to the bath solution at rising concentrations. Compound effects were calculated as the percentage inhibition of TASK-1 control current before compound addition. IC50 values were obtained by fitting the data to the general dose-response equation.

Chain of Human TASK-1 channels (O14649 whole entry): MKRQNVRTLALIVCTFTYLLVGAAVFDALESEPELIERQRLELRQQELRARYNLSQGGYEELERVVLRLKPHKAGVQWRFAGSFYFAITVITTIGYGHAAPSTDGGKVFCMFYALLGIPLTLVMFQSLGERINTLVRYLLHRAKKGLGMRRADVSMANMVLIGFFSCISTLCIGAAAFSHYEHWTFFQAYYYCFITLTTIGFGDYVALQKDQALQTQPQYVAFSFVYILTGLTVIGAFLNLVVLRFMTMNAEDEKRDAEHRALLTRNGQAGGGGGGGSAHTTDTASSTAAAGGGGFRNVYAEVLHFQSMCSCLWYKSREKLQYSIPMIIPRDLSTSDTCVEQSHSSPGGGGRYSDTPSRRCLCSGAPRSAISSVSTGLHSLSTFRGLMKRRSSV

**Q.** How did the inhibition at 5 µM turn out when `CCN(Cc1nnn(C)n1)C(=O)c1cc(C(=O)N[C@H](C)c2ccc(F)cc2)n2c1COCC2` [16rt, 3,4-Dihydro-1H-pyrrolo[2,1-c][1,4]oxazine-6,8-dicarboxylic acid 8-[ethyl-(2-methyl-2H-tetrazol-5-ylmethyl)-amide] 6-{[(R)-1-(4-fluoro-phenyl)-ethyl]-amide}] was run?
**A.** The inhibition at 5 µM was 72%.

**Q.** `CC[C@@H](NC(=O)c1cc(C(=O)N2CCC[C@@H]2C)n2c1COCC2)c1ncccn1` [16bd, 6-((S)-2-Methyl-pyrrolidine-1-carbonyl)-3,4-dihydro-1H-pyrrolo[2,1-c][1,4]oxazine-8-carboxylic acid ((R)-1-pyrimidin-2-yl-propyl)-amide] was tested. Which inhibition at 5 µM did it give?
**A.** Its inhibition at 5 µM is 47%.

Same assay, conditions: human TASK-1 expressed in Xenopus oocytes, room temperature; read-out: IC50 value for TASK-1 inhibition

**Q.** For `CC[C@@H](NC(=O)c1cc(C(=O)N2CC[C@H](OCC3CC3)C2)n2c1COCC2)c1ccccc1` [16ev, 6-((S)-3-Cyclopropylmethoxy-pyrrolidine-1-carbonyl)-3,4-dihydro-1H-pyrrolo[2,1-c][1,4]oxazine-8-carboxylic acid ((R)-1-phenyl-propyl)-amide], which IC50 is on record?
**A.** The IC50 was 330 nM.

**Q.** With `CC[C@@H](NC(=O)c1cc(C(=O)N2CCC[C@@H]2C)n2c1COCC2)c1cnc(C(F)(F)F)c(F)c1` [16ck, 6-((S)-2-Methyl-pyrrolidine-1-carbonyl)-3,4-dihydro-1H-pyrrolo[2,1-c][1,4]oxazine-8-carboxylic acid [(R)-1-(5-fluoro-6-trifluoromethyl-pyridin-3-yl)-propyl]-amide] as the compound, how does the IC50 read?
**A.** Its IC50 is 830 nM.

**Q.** For `CC[C@@H](NC(=O)c1cc(C(=O)N[C@H](CO)C(C)C)n2c1COCC2)c1ccccc1` [16iz, 3,4-Dihydro-1H-pyrrolo[2,1-c][1,4]oxazine-6,8-dicarboxylic acid 6-[((S)-1-hydroxymethyl-2-methyl-propyl)-amide] 8-[((R)-1-phenyl-propyl)-amide]], which IC50 is on record?
**A.** The IC50 was 1900 nM.

**Q.** `CC[C@@H](NC(=O)c1cc(C(=O)N2CCC[C@@H]2COC)c2n1CCOC2)c1ccccc1` [16kk, 8-((R)-2-Methoxymethyl-pyrrolidine-1-carbonyl)-3,4-dihydro-1H-pyrrolo[2,1-c][1,4]oxazine-6-carboxylic acid ((R)-1-phenyl-propyl)-amide] was tested. Which IC50 did it give?
**A.** Its IC50 is 130 nM.

**Q.** With `CC[C@@H](NC(=O)c1cc(C(=O)N2CCC[C@@H]2C)n2c1COCC2)c1ccc(Cl)nc1` [16ar, 6-((S)-2-Methyl-pyrrolidine-1-carbonyl)-3,4-dihydro-1H-pyrrolo[2,1-c][1,4]oxazine-8-carboxylic acid [(R)-1-(6-chloro-pyridin-3-yl)-propyl]-amide] as the compound, how does the IC50 read?
**A.** Its IC50 is 440 nM.

**Q.** For `CC[C@@H](NC(=O)c1cc(C(=O)N2CCC[C@H]2C)n2c1COCC2)c1ccccc1` [16ej, 6-((R)-2-Methyl-pyrrolidine-1-carbonyl)-3,4-dihydro-1H-pyrrolo[2,1-c][1,4]oxazine-8-carboxylic acid ((R)-1-phenyl-propyl)-amide], which IC50 is on record?
**A.** The IC50 was 260 nM.

**Q.** How did the IC50 turn out when `CCOC(=O)CN(C)C(=O)c1cc(C(=O)N[C@H](CC)c2ccccc2)c2n1CCOC2` [16iy, {Methyl-[8-((R)-1-phenyl-propylcarbamoyl)-3,4-dihydro-1H-pyrrolo[2,1-c][1,4]oxazine-6-carbonyl]-amino}-acetic acid ethyl ester] was run?
**A.** Its IC50 is 270 nM.

**Q.** For `CC[C@@H](NC(=O)c1cc(C(=O)N2CCC[C@@H]2C)n2c1COC(C)(C)C2)c1ccc(C(F)(F)F)nc1` [16pi, 3,3-Dimethyl-6-((S)-2-methyl-pyrrolidine-1-carbonyl)-3,4-dihydro-1H-pyrrolo[2,1-c][1,4]oxazine-8-carboxylic acid [(R)-1-(6-trifluoromethyl-pyridin-3-yl)-propyl]-amide], which IC50 is on record?
**A.** Its IC50 is 850 nM.

**Q.** With `CC[C@@H](NC(=O)c1cc(C(=O)N2CCC[C@@H]2C)n2c1COCC2)c1cccc(C#N)n1` [16ah, 6-((S)-2-Methyl-pyrrolidine-1-carbonyl)-3,4-dihydro-1H-pyrrolo[2,1-c][1,4]oxazine-8-carboxylic acid [(R)-1-(6-cyano-pyridin-2-yl)-propyl]-amide] as the compound, how does the IC50 read?
**A.** The IC50 was 3200 nM.

**Q.** How did the IC50 turn out when `CC[C@@H](NC(=O)c1cc(C(=O)NC(C)C)n2c1COCC2)c1ccccc1` [16ge, 3,4-Dihydro-1H-pyrrolo[2,1-c][1,4]oxazine-6,8-dicarboxylic acid 6-isopropylamide 8-[((R)-1-phenyl-propyl)-amide]] was run?
**A.** Its IC50 is 690 nM.

**Q.** `CC[C@@H](NC(=O)c1cc(C(=O)NCCC2CC2)n2c1COCC2)c1ccccc1` [16gk, 3,4-Dihydro-1H-pyrrolo[2,1-c][1,4]oxazine-6,8-dicarboxylic acid 6-[(2-cyclopropyl-ethyl)-amide] 8-[((R)-1-phenyl-propyl)-amide]] was tested. Which IC50 did it give?
**A.** The IC50 was 36 nM.

**Q.** `CC[C@@H](NC(=O)c1cc(C(=O)N2CCCC2)n2c1COCC2)c1ccccc1` [16cx, 6-(Pyrrolidine-1-carbonyl)-3,4-dihydro-1H-pyrrolo[2,1-c][1,4]oxazine-8-carboxylic acid ((R)-1-phenyl-propyl)-amide] was tested. Which IC50 did it give?
**A.** The IC50 was 74 nM.

**Q.** `CC[C@@H](NC(=O)c1cc(C(=O)N2CCC[C@@H]2C)n2c1COCC2)c1ccc(C#N)c(Cl)c1` [16d, 6-((S)-2-Methyl-pyrrolidine-1-carbonyl)-3,4-dihydro-1H-pyrrolo[2,1-c][1,4]oxazine-8-carboxylic acid [(R)-1-(3-chloro-4-cyano-phenyl)-propyl]-amide] was tested. Which IC50 did it give?
**A.** Its IC50 is 240 nM.

**Q.** Which IC50 does the source give for `CC[C@@H](NC(=O)c1cc(C(=O)N2CCC[C@@H]2C)n2c1COCC2)c1ccc(SC(F)(F)F)cc1` [16ax, 6-((S)-2-Methyl-pyrrolidine-1-carbonyl)-3,4-dihydro-1H-pyrrolo[2,1-c][1,4]oxazine-8-carboxylic acid [(R)-1-(4-trifluoromethylsulfanyl-phenyl)-propyl]-amide] here?
**A.** The IC50 was 350 nM.

**Q.** How did the IC50 turn out when `O=C(NC(CC(F)(F)F)c1ccccc1)c1cc(C(=O)N2CCCC2)n2c1COCC2` (stereo not shown) [16dj, 6-(Pyrrolidine-1-carbonyl)-3,4-dihydro-1H-pyrrolo[2,1-c][1,4]oxazine-8-carboxylic acid (3,3,3-trifluoro-1-phenyl-propyl)-amide] was run?
**A.** The IC50 was 1900 nM.

**Q.** Which IC50 does the source give for `CC[C@@H](NC(=O)c1cc(C(=O)NCc2nccs2)c2n1CCCC2)c1ccccc1` [16md, 5,6,7,8-Tetrahydro-indolizine-1,3-dicarboxylic acid 3-[((R)-1-phenyl-propyl)-amide] 1-[(thiazol-2-ylmethyl)-amide]] here?
**A.** Its IC50 is 80 nM.

**Q.** How did the IC50 turn out when `CC[C@@H](NC(=O)c1cc(C(=O)N2CCC[C@@H]2C)n2c1COCC2)c1ccc(C#N)cc1F` [16ay, 6-((S)-2-Methyl-pyrrolidine-1-carbonyl)-3,4-dihydro-1H-pyrrolo[2,1-c][1,4]oxazine-8-carboxylic acid [(R)-1-(4-cyano-2-fluoro-phenyl)-propyl]-amide] was run?
**A.** Its IC50 is 910 nM.

**Q.** How did the IC50 turn out when `CC[C@@H](NC(=O)c1cc(C(=O)Nc2c(C)noc2C)c2n1CCOC2)c1ccccc1` [16jk, 3,4-Dihydro-1H-pyrrolo[2,1-c][1,4]oxazine-6,8-dicarboxylic acid 8-[(3,5-dimethyl-isoxazol-4-yl)-amide] 6-[((R)-1-phenyl-propyl)-amide]] was run?
**A.** Its IC50 is 620 nM.

**Q.** `CC[C@@H](NC(=O)c1cc(C(=O)NCc2ncccn2)n2c1COCC2)c1ccccc1` [16hj, 3,4-Dihydro-1H-pyrrolo[2,1-c][1,4]oxazine-6,8-dicarboxylic acid 8-[((R)-1-phenyl-propyl)-amide] 6-[(pyrimidin-2-ylmethyl)-amide]] was tested. Which IC50 did it give?
**A.** The IC50 was 530 nM.

**Q.** `CC[C@@H](NC(=O)c1cc(C(=O)N2CCOCC2)n2c1COCC2)c1ccccc1` [16eh, 6-(Morpholine-4-carbonyl)-3,4-dihydro-1H-pyrrolo[2,1-c][1,4]oxazine-8-carboxylic acid ((R)-1-phenyl-propyl)-amide] was tested. Which IC50 did it give?
**A.** Its IC50 is 1700 nM.

**Q.** `CC[C@@H](NC(=O)c1cc(C(=O)N2CCC[C@@H]2C)n2c1COCC2)c1cccc(O)c1` [16ab, 6-((S)-2-Methyl-pyrrolidine-1-carbonyl)-3,4-dihydro-1H-pyrrolo[2,1-c][1,4]oxazine-8-carboxylic acid [(R)-1-(3-hydroxy-phenyl)-propyl]-amide] was tested. Which IC50 did it give?
**A.** Its IC50 is 2600 nM.

**Q.** Which IC50 does the source give for `CC[C@@H](NC(=O)c1cc(C(=O)N2CCC[C@@H]2C)n2c1CCCC2)c1ccc(C#N)nc1` [16lv, 3-((S)-2-Methyl-pyrrolidine-1-carbonyl)-5,6,7,8-tetrahydro-indolizine-1-carboxylic acid [(R)-1-(6-cyano-pyridin-3-yl)-propyl]-amide] here?
**A.** The IC50 was 2100 nM.

**Q.** With `CC[C@@H](NC(=O)c1cc(C(=O)N2CCC[C@@H]2c2ccccn2)n2c1COCC2)c1ccccc1` [16fk, 6-((R)-2-Pyridin-2-yl-pyrrolidine-1-carbonyl)-3,4-dihydro-1H-pyrrolo[2,1-c][1,4]oxazine-8-carboxylic acid ((R)-1-phenyl-propyl)-amide] as the compound, how does the IC50 read?
**A.** The IC50 was 290 nM.

**Q.** `CC[C@H](NC(=O)c1cc(C(=O)N[C@H](CC)c2ccccc2)c2n1CCOC2)c1ccccc1` [16hs, 3,4-Dihydro-1H-pyrrolo[2,1-c][1,4]oxazine-6,8-dicarboxylic acid 6-[((S)-1-phenyl-propyl)-amide] 8-[((R)-1-phenyl-propyl)-amide]] was tested. Which IC50 did it give?
**A.** The IC50 was 100 nM.

**Q.** Which IC50 does the source give for `CC[C@@H](NC(=O)c1cc(C(=O)N[C@H](c2ccc(F)cc2)C2CC2)n2c1COCC2)c1ccccc1` [16ik, 3,4-Dihydro-1H-pyrrolo[2,1-c][1,4]oxazine-6,8-dicarboxylic acid 6-{[(S)-cyclopropyl-(4-fluoro-phenyl)-methyl]-amide} 8-[((R)-1-phenyl-propyl)-amide]] here?
**A.** The IC50 was 710 nM.

**Q.** For `CC[C@@H](NC(=O)c1cc(C(=O)NC(C2CC2)C2CC2)n2c1COCC2)c1ccc(C(F)(F)F)nc1` [16pa, 3,4-Dihydro-1H-pyrrolo[2,1-c][1,4]oxazine-6,8-dicarboxylic acid 6-dicyclopropylmethyl-amide 8-{[(R)-1-(6-trifluoromethyl-pyridin-3-yl)-propyl]-amide}], which IC50 is on record?
**A.** Its IC50 is 1500 nM.

Source: patent US9284333B2, “Fused pyrroledicarboxamides and their use as pharmaceuticals” (SANOFI, priority 2012, dated 2016)
